The values below come from paper PMC12018053 (Biochemistry and Biophysics Reports, 2025).

In data set [1] the target is T1, Rat sEH (Rattus norvegicus, UniProt P80299).
T1 sequence (P80299 1-554): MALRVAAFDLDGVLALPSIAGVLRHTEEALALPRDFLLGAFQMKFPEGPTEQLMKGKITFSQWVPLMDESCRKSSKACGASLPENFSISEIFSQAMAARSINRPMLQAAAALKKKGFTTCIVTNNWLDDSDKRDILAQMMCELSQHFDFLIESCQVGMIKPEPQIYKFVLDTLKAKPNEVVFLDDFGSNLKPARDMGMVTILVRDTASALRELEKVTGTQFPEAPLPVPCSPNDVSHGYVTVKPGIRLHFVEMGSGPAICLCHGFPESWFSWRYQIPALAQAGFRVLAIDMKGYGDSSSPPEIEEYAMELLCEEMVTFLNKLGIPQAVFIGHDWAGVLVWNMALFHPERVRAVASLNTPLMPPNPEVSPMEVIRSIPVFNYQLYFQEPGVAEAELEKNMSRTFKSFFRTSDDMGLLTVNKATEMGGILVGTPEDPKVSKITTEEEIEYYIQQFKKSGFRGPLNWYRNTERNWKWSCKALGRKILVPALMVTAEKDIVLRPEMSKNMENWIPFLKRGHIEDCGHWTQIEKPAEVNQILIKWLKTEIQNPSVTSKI
Description: sEH fluorescent-based inhibition assay. It counts as biochemical.

For data set [2], the target named is T2, Human sEH (Homo sapiens, UniProt P34913).
T2 sequence (P34913 1-555): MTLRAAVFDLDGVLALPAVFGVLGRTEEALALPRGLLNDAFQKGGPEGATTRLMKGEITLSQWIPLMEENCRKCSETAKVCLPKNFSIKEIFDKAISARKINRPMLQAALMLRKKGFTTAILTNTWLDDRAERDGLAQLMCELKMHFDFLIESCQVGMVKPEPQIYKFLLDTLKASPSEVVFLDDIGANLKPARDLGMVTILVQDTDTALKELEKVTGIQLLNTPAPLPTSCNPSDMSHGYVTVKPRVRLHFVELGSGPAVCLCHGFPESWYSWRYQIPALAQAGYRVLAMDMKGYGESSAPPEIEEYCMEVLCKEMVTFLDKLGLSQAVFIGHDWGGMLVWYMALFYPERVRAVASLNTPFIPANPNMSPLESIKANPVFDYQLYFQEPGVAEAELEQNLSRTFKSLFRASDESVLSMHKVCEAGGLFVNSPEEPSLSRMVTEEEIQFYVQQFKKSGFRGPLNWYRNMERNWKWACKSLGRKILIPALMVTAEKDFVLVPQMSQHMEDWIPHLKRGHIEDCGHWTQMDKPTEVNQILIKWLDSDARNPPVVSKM
Description: sEH fluorescent-based inhibition assay. It counts as biochemical.

The nature of data set [3]: physchem. To be noted: sodium phosphate buffer, 24 °C, pH 7.4, aqueous buffer, kinetic from dmso stock.
Data set [4] has as its target T3, Mouse sEH (Mus musculus, UniProt P34914).
T3 sequence (P34914 1-554): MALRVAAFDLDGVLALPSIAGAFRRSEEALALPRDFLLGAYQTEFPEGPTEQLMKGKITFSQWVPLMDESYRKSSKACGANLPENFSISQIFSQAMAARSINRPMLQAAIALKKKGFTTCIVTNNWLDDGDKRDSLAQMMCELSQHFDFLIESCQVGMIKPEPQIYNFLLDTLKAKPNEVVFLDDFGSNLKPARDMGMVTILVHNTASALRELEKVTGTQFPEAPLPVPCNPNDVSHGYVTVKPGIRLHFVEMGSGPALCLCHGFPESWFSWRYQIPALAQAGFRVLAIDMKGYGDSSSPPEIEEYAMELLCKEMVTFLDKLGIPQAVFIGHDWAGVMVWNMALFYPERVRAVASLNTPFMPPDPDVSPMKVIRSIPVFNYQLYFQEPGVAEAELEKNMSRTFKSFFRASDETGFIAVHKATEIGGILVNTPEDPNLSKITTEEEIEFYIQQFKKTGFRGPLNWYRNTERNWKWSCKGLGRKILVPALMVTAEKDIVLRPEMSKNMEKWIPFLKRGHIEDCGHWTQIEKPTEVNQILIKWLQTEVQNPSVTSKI
The data set is described as follows: sEH fluorescent-based inhibition assay. It counts as biochemical.

Data set [5] has as its system temporomandibular joint (TMJ). To be noted: local administration; cited from earlier work.
In data set [6] the test system is rats. To be noted: 1 mg/kg; cited from earlier work.

A word on the IC50: it is the concentration that inhibits the measured activity by half. Read a high IC50 as a need for much substance. As a reminder, the solubility is how much of the substance goes into solution per volume. Low readings indicate little dissolved substance, high ones much dissolved substance.

Values after ≈ are worked out from the molar mass of the structure shown.

As to `O=C(Nc1ccc(-c2nccc3ccccc23)cc1)C1CCN(S(=O)(=O)c2ccccc2Cl)CC1` [Compound 4a, 1-((2-chlorophenyl)sulfonyl)-N-(4-(isoquinolin-1-yl)phenyl)piperidine-4-carboxamide], the IC50 worked out at 3.7 nM in data set [1], 3.7 nM in data set [2] and 283 nM in data set [4]. In addition, the solubility in data set [3] was determined as 56 µM (≈ 28.3 µg/mL).

`O=C(Nc1ccc(-c2cc3ccccc3cn2)cc1)C1CCN(S(=O)(=O)c2ccccc2Cl)CC1` [Compound 4b, 1-((2-chlorophenyl)sulfonyl)-N-(4-(isoquinolin-3-yl)phenyl)piperidine-4-carboxamide]: the IC50 in data set [1] worked out at 11.5 nM; in data set [2] it was 18.7 nM; in data set [4] it was 236 nM. The solubility in data set [3] worked out at 51.6 µM (≈ 26.1 µg/mL).

Take `O=C(Nc1ccc(-c2cncc3ccccc23)cc1)C1CCN(S(=O)(=O)c2ccccc2Cl)CC1` [Compound 4c, 1-((2-chlorophenyl)sulfonyl)-N-(4-(isoquinolin-4-yl)phenyl)piperidine-4-carboxamide]: the IC50 in data set [1] was found to be 0.8 nM; in data set [2], 0.4 nM; in data set [4], 22.3 nM. The molecule further yielded a solubility in data set [3] of 49.2 µM (≈ 24.9 µg/mL).

As for `O=C(Nc1ccc(-c2cccc3cnccc23)cc1)C1CCN(S(=O)(=O)c2ccccc2Cl)CC1` [Compound 4d, 1-((2-chlorophenyl)sulfonyl)-N-(4-(isoquinolin-5-yl)phenyl)piperidine-4-carboxamide], the values for the IC50 in data set [1], in data set [2] and in data set [4] were 2.2 nM, 0.4 nM and 30.6 nM, respectively. Moreover, the solubility in data set [3] worked out at 40 µM (≈ 20.3 µg/mL).

In the case of `O=C(Nc1ccc(-c2ccc3cnccc3c2)cc1)C1CCN(S(=O)(=O)c2ccccc2Cl)CC1` [Compound 4e, 1-((2-chlorophenyl)sulfonyl)-N-(4-(isoquinolin-6-yl)phenyl)piperidine-4-carboxamide], the IC50 in data set [1] turned out to be 0.5 nM; in data set [2], 1.8 nM; in data set [4], 51.3 nM. In data set [3], this molecule returned a solubility of 55.8 µM (≈ 28.2 µg/mL).

In the case of `O=C(Nc1ccc(-c2cccc3ccncc23)cc1)C1CCN(S(=O)(=O)c2ccccc2Cl)CC1` [Compound 4g, 1-((2-chlorophenyl)sulfonyl)-N-(4-(isoquinolin-8-yl)phenyl)piperidine-4-carboxamide], the values for the IC50 in data set [1], in data set [2] and in data set [4] were 4.7 nM, 1.4 nM and 69 nM, respectively. In addition, the solubility in data set [3] came to 65.6 µM (≈ 33.2 µg/mL).

`O=C(Nc1ccc(-c2ccccn2)cc1)C1CCN(S(=O)(=O)c2ccccc2Cl)CC1` [Compound 4h, 1-((2-chlorophenyl)sulfonyl)-N-(4-(pyridin-2-yl)phenyl)piperidine-4-carboxamide]: the IC50 came out at 1.9 nM in data set [1] and 188 nM in data set [4]. In addition, the solubility in data set [3] came to 66.7 µM (≈ 30.4 µg/mL).

Regarding `O=C(Nc1ccc(-c2cccnc2)cc1)C1CCN(S(=O)(=O)c2ccccc2Cl)CC1` [Compound 4i, 1-((2-chlorophenyl)sulfonyl)-N-(4-(pyridin-3-yl)phenyl)piperidine-4-carboxamide], the results for the IC50 in data set [1], in data set [2] and in data set [4] were 2.8 nM, 1.3 nM and 127 nM, respectively. The molecule further showed a solubility in data set [3] of 51.1 µM (≈ 23.3 µg/mL).

Regarding `O=C(Nc1ccc(-c2ccncc2)cc1)C1CCN(S(=O)(=O)c2ccccc2Cl)CC1` [Compound 4j, 1-((2-chlorophenyl)sulfonyl)-N-(4-(pyridin-4-yl)phenyl)piperidine-4-carboxamide], the figures for the IC50 in data set [1], in data set [2] and in data set [4] were 3.1 nM, 1.8 nM and 133 nM, respectively. In addition, in data set [3], the solubility came out at 50.9 µM (≈ 23.2 µg/mL).

Take `Cc1cccc(-c2ccc(NC(=O)C3CCN(S(=O)(=O)c4ccccc4Cl)CC3)cc2)n1` [Compound 4k, 1-((2-chlorophenyl)sulfonyl)-N-(4-(6-methylpyridin-2-yl)phenyl)piperidine-4-carboxamide]: the IC50 was found to be 1.6 nM in data set [1], 4.7 nM in data set [2] and 226 nM in data set [4]. In data set [3], this molecule yielded a solubility of 43.4 µM (≈ 20.4 µg/mL).

Turning to `Cc1ccnc(-c2ccc(NC(=O)C3CCN(S(=O)(=O)c4ccccc4Cl)CC3)cc2)c1` [Compound 4l, 1-((2-chlorophenyl)sulfonyl)-N-(4-(4-methylpyridin-2-yl)phenyl)piperidine-4-carboxamide], the results for the IC50 in data set [1], in data set [2] and in data set [4] were 10.3 nM, 5.1 nM and 499 nM, respectively. In addition, in data set [3], the solubility came out at 36.4 µM (≈ 17.1 µg/mL).

In the case of `Cc1cncc(-c2ccc(NC(=O)C3CCN(S(=O)(=O)c4ccccc4Cl)CC3)cc2)c1` [Compound 4m, 1-((2-chlorophenyl)sulfonyl)-N-(4-(5-methylpyridin-3-yl)phenyl)piperidine-4-carboxamide], the IC50 turned out to be 1.1 nM in data set [1], 2.6 nM in data set [2] and 175 nM in data set [4]. The molecule also returned a solubility in data set [3] of 49.4 µM (≈ 23.2 µg/mL).

As for `Cc1cc(-c2ccc(NC(=O)C3CCN(S(=O)(=O)c4ccccc4Cl)CC3)cc2)ccn1` [Compound 4n, 1-((2-chlorophenyl)sulfonyl)-N-(4-(2-methylpyridin-4-yl)phenyl)piperidine-4-carboxamide], the IC50 in data set [1] was found to be 3.6 nM; in data set [2], 5.8 nM; in data set [4] it was 259 nM. The solubility in data set [3] is 53 µM (≈ 24.9 µg/mL).

Consider `CCC(=O)N1CCC(NC(=O)Nc2ccc(OC(F)(F)F)cc2)CC1` [TPPU], for which the “Effect on formalin-induced hyperalgesia within the temporomandibular joint” value in data set [5] is reported as “prevented formalin-induced hyperalgesia”.

As to `NC(=O)c1cccc(-c2cc(OC(=O)NC3CCCCC3)ccc2O)c1` [URB937], in data set [6], the “Effect on NTG-induced trigeminal hyperalgesia” value was “reversed NTG-induced trigeminal hyperalgesia”.
